Results as given in the supplement of paper PMC11208160.

Assay: recombinant UMI read abundance after kanamycin selection (control-corrected) (log10(CPM+1)); higher = more efficient recombination; extreme values may be limits of the assay; sequences stand for … in AGTGCAGAGAAAATCGGCCAGTTTTCTCTGCCTGCAGTCCGCATGCCGTGGGACCCCTTGGGTTCTAACCTGTTGCCTAGATTTATGCAGCGGACTGCCTTTCTCCCAAAGTGATAAACCGG…AGGTTGGTTTCACT; site = the 11-nt donor
Procedure, shortened: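 Each donor and donor-binding-loop pair was tracked by a 12-nt UMI on a plasmid carrying a promoterless kanamycin gene. With a second plasmid supplying a fixed target and T7-inducible IS621 bridge recombinase, the pool was plated in Escherichia coli on IPTG (0.07 mM) plus kanamycin or unselected. Sequencing of recombinant UMIs across the donor–target junction gave counts expressed as log10(CPM+1) after replicate averaging and control-derived scaling.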

Row | Sequence | recombinant UMI read abundance (log10)
1 | GAATGGCCATGGACCGGTTTTCCCGGTAATCCGTATTTGAA (site GAATGGCCTTT) | 0.0109
2 | GAATGGTCATGGACCGGTTTTCCCGGTAATCCGTATTTGCA (site GAATGGACTTG) | 0.0076
3 | GAATGGTCATGGACCGGTTTTCCCGGTAATCCGTATTTGCA (site GAATGGCCTTG) | 0
4 | GAATGGTCATGGACCGGTTTTCCCGGTAATCCGTATTTGCA (site GAATGGGCTTG) | 0.00395
5 | GAATGGTCATGGACCGGTTTTCCCGGTAATCCGTATTTGCA (site GAATGGTCTTG) | 2.38
6 | GAATTCCCATGGACCGGTTTTCCCGGTAATCCGTATTTGTA (site GAATTCCCTTA) | 0.666
7 | GAATTGACATGGACCGGTTTTCCCGGTAATCCGTATTTGAT (site GAATTGACTAT) | 1.37
8 | GAATTGCCATGGACCGGTTTTCCCGGTAATCCGTATTTGCA (site GAATAGCCTTG) | 0
9 | GAATTGCCATGGACCGGTTTTCCCGGTAATCCGTATTTGCA (site GAATCGCCTTG) | 0
10 | GAATTGCCATGGACCGGTTTTCCCGGTAATCCGTATTTGCA (site GAATGGCCTTG) | 0.696
11 | GAATTGCCATGGACCGGTTTTCCCGGTAATCCGTATTTGCA (site GAATTGCCTTG) | 0
12 | GACAAATCATGGACCGGTTTTCCCGGTAATCCGTATTTGGT (site GACAAAACTAC) | 0
13 | GACAAATCATGGACCGGTTTTCCCGGTAATCCGTATTTGGT (site GACAAACCTAC) | 0
14 | GACAAATCATGGACCGGTTTTCCCGGTAATCCGTATTTGGT (site GACAAAGCTAC) | 0.224
15 | GACAAATCATGGACCGGTTTTCCCGGTAATCCGTATTTGGT (site GACAAATCTAC) | 0.59
16 | GACAATCCATGGACCGGTTTTCCCGGTAATCCGTATTTGGT (site GACAAACCTAC) | 0
17 | GACAATCCATGGACCGGTTTTCCCGGTAATCCGTATTTGGT (site GACAACCCTAC) | 0.00483

Row | Sequence | recombinant UMI read abundance (log10)
18 | GACAATCCATGGACCGGTTTTCCCGGTAATCCGTATTTGGT (site GACAAGCCTAC) | 0.0115
19 | GACAATCCATGGACCGGTTTTCCCGGTAATCCGTATTTGGT (site GACAATCCTAC) | 0.0195
20 | GACACGACATGGACCGGTTTTCCCGGTAATCCGTATTTGGG (site GACACGACTCC) | 0.173
21 | GACAGGGCATGGACCGGTTTTCCCGGTAATCCGTATTTGAT (site GACAGGGCTAT) | 1.89
22 | GACATCCCATGGACCGGTTTTCCCGGTAATCCGTATTTGAA (site GACATCCCTTT) | 0.475
23 | GACCAACCATGGACCGGTTTTCCCGGTAATCCGTATTTGGT (site GACAAACCTAC) | 0
24 | GACCAACCATGGACCGGTTTTCCCGGTAATCCGTATTTGGT (site GACCAACCTAC) | 0.0426
25 | GACCAACCATGGACCGGTTTTCCCGGTAATCCGTATTTGGT (site GACGAACCTAC) | 0
26 | GACCAACCATGGACCGGTTTTCCCGGTAATCCGTATTTGGT (site GACTAACCTAC) | 0.00842
27 | GACCCATCATGGACCGGTTTTCCCGGTAATCCGTATTTGAG (site GACCCATCTCT) | 2.43
28 | GACCGTCCATGGACCGGTTTTCCCGGTAATCCGTATTTGAG (site GACCGTCCTCT) | 0.281
29 | GACCTACCATGGACCGGTTTTCCCGGTAATCCGTATTTGTC (site GACCTACCTGA) | 0
30 | GACCTCACATGGACCGGTTTTCCCGGTAATCCGTATTTGGG (site GACCTCACTCC) | 0.0144
31 | GACCTTGCATGGACCGGTTTTCCCGGTAATCCGTATTTGCA (site GACCTTGCTTG) | 0
32 | GACGAACCATGGACCGGTTTTCCCGGTAATCCGTATTTGAG (site GACGAACCTCT) | 0
33 | GACGAACCATGGACCGGTTTTCCCGGTAATCCGTATTTGGT (site GACAAACCTAC) | 0
34 | GACGAACCATGGACCGGTTTTCCCGGTAATCCGTATTTGGT (site GACCAACCTAC) | 0.0777
